Experimental data from patent publication US5665777A, “Biphenyl hydroxamate inhibitors of matrix metalloproteinases” (Abbott Laboratories, priority 1995, dated 1997).

Columns and labels:
[1] = tested on: TNFα secretion; test: HL-60 TNFα Release Assay (inhibition of TNFα secretion, ELISA); type: cell-based; conditions: Homo sapiens, HL-60 cells, 40 nM phorbol myristate acetate, 20 hr at 37° C.
Experimental: The inhibition of TNFα secretion by the compounds of this invention was determined using a HL-60 TNFα Release Assay. HL-60 cells were cultured in RPMI 1640 with 10% fetal bovine serum and penicillin/streptomycin. HL-60 cells (150,000 cells/well) were placed in 96 well culture plates in RPMI 1640 with 10% fetal bovine serum and pen/strep containing 40 nM phorbol myristate acetate and test compound in DMSO (final DMSO 0.1%). HL-60 cells were then cultured for 20 hr at 37° C. (95% humidity) after which cell supernatants were collected for analysis of TNFα by ELISA.

[2] = target: T1, stromelysin (Homo sapiens, UniProt P08254); test: Determination of stromelysin inhibition (cleavage of thiopeptide ester substrate, DTNB readout); type: biochemical; conditions: for IC50: recombinant truncated human stromelysin, pH 6.5, 30 min, ambient temperature, read-out: IC50, inhibitory potency against stromelysin
T1 construct: made in house; host or cells: E. coli
T1 sequence (P08254 100-273 limits assumed): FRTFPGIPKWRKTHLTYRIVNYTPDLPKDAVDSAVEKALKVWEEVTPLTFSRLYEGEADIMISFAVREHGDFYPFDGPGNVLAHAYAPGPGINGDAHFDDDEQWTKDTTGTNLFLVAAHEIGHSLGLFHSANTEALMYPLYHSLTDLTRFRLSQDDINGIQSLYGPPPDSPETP
Experimental: The inhibition of stromelysin by the compounds of this invention was determined as follows: Recombinant truncated stromelysin (human sequence) produced in E. coli was prepared by expression and purification of the protein as described by Ye et al., Biochemistry, 1992, 31, 11231-11235. The enzyme was assayed by its cleavage of the thiopeptide ester substrate Ac-Pro-Leu-Gly-[2-mercapto-4-methyl-pentanoyl]-Leu-Gly-OEt described by Weingarten and Feder, Anal Biochem., 1985, 147, 437-440 (1985), as a substrate of vertebrate collagenase. The reported conditions were modified to allow assays to be carried out in a microtiter plate. Upon hydrolysis of the thioester bond, the released thiol group reacts rapidly with 5,5'-dithio-bis(2-nitrobenzoic acid) (DTNB), producing a yellow color which is measured by a microtiter plate reader set al 405 nm. The rates of cleavage of the substrate by stromelysin in the presence or absence of inhibitors are measured in a 30 min assay at ambient temperature. Solutions of the compounds in DMSO are prepared, and these are diluted at various concentrations into the assay buffer (50 mM MES/NaOH pH 6.5 with 10 mM CaCl2 and 0.2% Pluronic F-68), which is also used for dilution of the enzyme and substrate. The potency of the compounds [IC50 ] are calculated from the inhibition/inhibitor concentration data.

| Compound | inhibition at 16 µM [1] [%] | IC50 [2] [nM] | other results |
| --- | --- | --- | --- |
| O=C(CCCOc1ccc(-c2ccccc2)cc1)NO [Example 1, 4-(4-phenylphenoxy)butanohydroxamic acid] | 27 | – | – |
| O=C(CCCOc1cccc(-c2ccccc2)c1)NO [Example 2, 4-(3-phenylphenoxy)butanohydroxamic acid] | – | – | inhibition at 100 µM [2]: 5% |
| N#Cc1ccc(-c2ccc(OCCCC(=O)NO)cc2)cc1 [Example 3, 4-[4-(4-cyanophenyl)phenoxy]butanohydroxamic acid] | – | 3500 | – |
| N#Cc1cccc(-c2ccc(OCCCC(=O)NO)cc2)c1 [Example 4, 4-[4-(3-cyanophenyl)phenoxy]butanohydroxamic acid] | 64 | 46000 | – |
| N#CCc1ccc(-c2ccc(OCCCC(=O)NO)cc2)cc1 [Example 5, 4-[4-(4-cyanomethylphenyl)phenoxy]butanohydroxamic acid] | 82 | 21000 | – |
| N#CCc1cccc(-c2ccc(OCCCC(=O)NO)cc2)c1 [Example 6, 4-[4-(3-cyanomethylphenyl)phenoxy]butanohydroxamic acid] | 40 | 1900 | – |
| O=C(CCCOc1ccc(-c2ccc(Cl)cc2)cc1)NO [Example 7, 4-[4-(4-chlorophenyl)phenoxy]butanohydroxamic acid] | 35 | – | inhibition at 100 µM [2]: 47% |
| CCCc1ccc(-c2ccc(OCCCC(=O)NO)cc2)cc1 [Example 8, 4-[4-(4-propylphenyl)phenoxy]butanohydroxamic acid] | 35 | 10000 | – |
| COc1ccc(-c2ccc(OCCCC(=O)NO)cc2)cc1 [Example 9, 4-[4-(4-methoxyphenyl)phenoxy]butanohydroxamic acid] | – | 34000 | – |
| O=C(CCCCCCOc1ccc(-c2ccccc2)cc1)NO [Example 10, 7-(4-phenylphenoxy)heptanohydroxamic acid] | – | – | inhibition at 100 µM [2]: 45% |
| N#Cc1ccc(-c2ccc(OCCCCCCC(=O)NO)cc2)cc1 [Example 11, 7-[4-(4-cyanophenyl)phenoxy]heptanohydroxamic acid] | 77 | 2300 | – |
| O=C(CCCCOc1cccc(-c2ccc(F)cc2)c1)NO [Example 12, 5-[3-(4-fluorophenyl)phenoxy]pentanohydroxamic acid] | 62 | – | inhibition at 100 µM [2]: 20% |
| N#Cc1cccc(-c2cccc(OCCCCC(=O)NO)c2)c1 [Example 13, 5-[3-(3-cyanophenyl)phenoxy]pentanohydroxamic acid] | 67 | – | inhibition at 100 µM [2]: 24% |
| N#Cc1ccc(-c2cccc(OCCCCC(=O)NO)c2)cc1 [Example 14, 5-[3-(4-cyanophenyl)phenoxy]pentanohydroxamic acid] | 64 | 123000 | – |
| O=C(CCCOc1cccc(-c2ccc(F)cc2)c1)NO [Example 15, 4-[3-(4-fluorophenyl)phenoxy]butanohydroxamic acid] | 63 | 74000 | – |
| N#Cc1ccc(-c2cccc(OCCCC(=O)NO)c2)cc1 [Example 16, 4-[3-(4-cyanophenyl)phenoxy]butanohydroxamic acid] | – | 24000 | – |
| N#Cc1cccc(-c2cccc(OCCCC(=O)NO)c2)c1 [Example 17, 4-[3-(3-cyanophenyl)phenoxy]butanohydroxamic acid] | – | 2500 | – |
| O=C(CCCCOc1cccc(-c2ccccc2)c1)NO [Example 18, 5-[3-phenylphenoxy]pentanohydroxamic acid] | 62 | 74000 | – |
| O=C(CCCCOc1ccc(-c2ccccc2)cc1)NO [Example 19, 5-[4-phenylphenoxy]pentanohydroxamic acid] | 61 | – | – |
| N#Cc1ccc(-c2ccc(OCCCCC(=O)NO)cc2)cc1 [Example 20, 5-[4-(4-cyanophenyl)phenoxy]pentanohydroxamic acid] | 50 | – | – |
| O=C(CCCCCOc1ccc(-c2ccccc2)cc1)NO [Example 21, 6-[4-phenylphenoxy]hexanohydroxamic acid] | – | 77000 | – |

| Compound | inhibition at 16 µM [1] [%] | IC50 [2] [nM] | other results |
| --- | --- | --- | --- |
| O=C(CCOc1cccc(-c2ccccc2)c1)NO [Example 24, 3-(3-phenylphenoxy)propanohydroxamic acid] | 59 | – | inhibition at 10 µM ([2]; @ 10 μM): 14% |
| COc1ccc(-c2ccc(OCCC(=O)NO)cc2)cc1 [Example 26, 3-[4-(4-methoxyphenyl)phenoxy]propanohydroxamic acid] | – | 79 | – |
| O=C(CCOc1ccc(-c2ccc(F)cc2)cc1)NO [Example 27, 3-[4-(4-fluorophenyl)phenoxy]propanohydroxamic acid] | – | 190 | – |
| C[C@@H](COc1ccc(-c2ccccc2)cc1)C(=O)NO [Example 28, (S)2-methyl-3-(4-phenylphenoxy)propanohydroxamic acid] | – | 150 | – |
| CNC(=O)C(CCOc1ccc(-c2ccc(C#N)cc2)cc1)CC(=O)NO (stereo not shown) [Example 29, 3-(N-methylcarboxamido)-5-[4-(4-cyanophenyl)phenoxy]pentanohydroxamic acid] | – | 350 | – |
| O=C(CCSc1ccc(-c2ccccc2)cc1)NO [Example 30, 3-(4-biphenylthio)propanohydroxamic acid] | – | 2100 | – |
| O=C(CSc1ccc(-c2ccccc2)cc1)NO [Example 31, 2-(4-biphenylthio)ethanohydroxamic acid] | – | 880 | – |
| O=C(CCNc1ccc(-c2ccccc2)cc1)NO [Example 32, 3-(4-biphenylamino)propanohydroxamic acid] | – | 4600 | – |
| O=C(Cc1ccc(-c2ccccc2)cc1)NO [Example 33, 2-(4-biphenyl)ethanohydroxamic acid] | – | – | inhibition at 100 µM [2]: 14% |
| O=C(CCCc1ccc(-c2ccccc2)cc1)NO [Example 34, 4-(4-biphenyl)butanohydroxamic acid] | 52 | 58000 | – |
| N#Cc1ccc(-c2ccc(CCCC(=O)NO)cc2)cc1 [Example 35, 4-[4-(4-cyanophenyl)phenyl]butanohydroxamic acid] | – | 8300 | – |
| O=C(CCc1ccc(-c2ccccc2)cc1)NO [Example 37, 3-(4-biphenyl)propanohydroxamic acid] | – | 30000 | – |
| O=C(CCCCc1ccc(-c2ccccc2)cc1)NO [Example 38, 5-(4-biphenyl)pentanohydroxamic acid] | 65 | 1000 | – |
| O=C(CCCCOc1ccc(-c2ccc(F)cc2)cc1)NO [Example 39, 5-[4-(4-fluorophenyl)phenoxy]pentanohydroxamic acid] | – | – | inhibition at 100 µM [2]: 47% |
| O=C(CCCOc1ccc(-c2ccccc2)cc1O)NO [Example 40, 4-(2-hydroxy-4-phenylphenoxy)butanohydroxamic acid] | – | – | inhibition at 100 µM [2]: 39% |
| O=C(CCCOc1cc(-c2ccccc2)ccc1O)NO [Example 41, 4-(2-hydroxy-5-phenylphenoxy)butanohydroxamic acid] | – | – | inhibition at 100 µM [2]: 36% |
| N#CCc1cccc(-c2ccc(OCCC(=O)NO)cc2)c1 [Example 42, 3-[4-(3-cyanomethylphenyl)phenoxy]propanohydroxamic acid] | – | 15 | – |
| CC(C)(C)OC(=O)CC(CCOc1ccc(-c2ccc(C#N)cc2)cc1)C(=O)NO (stereo not shown) [Example 43, 2-tert-butyloxycarbonylmethyl-4-[4-(4-cyanophenyl)phenoxy]butanohydroxamic acid] | – | 490 | – |
| N#CCc1ccc(-c2ccc(OCCC(=O)NO)cc2)cc1 [Example 44, 3-[4-(4-cyanomethylphenyl)phenoxy]propanohydroxamic acid] | – | 190 | – |
| O=C(NO)C(O)COc1ccc(-c2ccccc2)cc1 (stereo not shown) [Example 45, 2-hydroxy-3-[(4-phenyl)phenoxy]propanohydroxamic acid] | – | 2300 | – |
